Our source for the Ki values is patent publication EP0456183B1, “Spiro dibenzosuberane derivatives” (SHIONOGI SEIYAKU KABUSHIKI KAISHA, priority 1990, dated 1991).

Each structure is given as a SMILES string.

In the assay the target is T1, PCP (Phencylidine) receptor (Rattus norvegicus, UniProt P35439).
T1 construct: the pellets were then suspended in 5mM Tris-HCI buffer and used as the receptor preparation; from tissue; host or cells: rat (male Slc-Wistar) cerebral cortex membrane preparation
As to the kind of experiment: Binding test against PCP (Phencylidine) receptor, 3H-TCP displacement in rat cortex membrane preparation. To be noted: rat cortex receptor preparation (0.2mg protein/ml), labelled ligand 3H-TCP, 25 °C 30 minutes. Also on record: species or system rats (male, Slc-Wistar rat). On the procedure: Binding test against PCP (Phencylidine) receptor Experiment
After the decapitation of rats (male, Slc-Wistar rat, 10 15 weeks age), the cortex tissues was rapidly removed and each was weighed. The tissue was homogenized with ten-fold amount of ice-cold 50mM Tris-HCI buffer (pH7.4), and centrifuged at 40,000 x g for 10 minutes. This procedure is repeated 3 times. Then the obtained sample was freeze-dried in liquid nitrogen and preserved at -80 ° C On the test day, the sample was thawed at room temperature and centrifuged at 40,000 x g for 10 minutes, the pellets were then suspended in 5mM Tris-HCI buffer and used as the receptor preparation (0.2mg protein/ml). The preparation was added to the mixture containing the labelled ligand (^3H-TCP, […]) and the test drug, and the incubation was carried out (25 °C 30 minutes). The reaction was stopped by rapid filtering through Whatman GF/C filter and the filtrate was washed. Radioactivity on filters was determined by liquid scintillation counter and Ki value was calculated. The Whatmann GF/C filter was soaked in 0.05 % polyethyleneimine. (Literature : Vignon, J. et al., Brain R.,280; 194-197 (1983))

For orientation: Ki means a measure of affinity in units of concentration, obtained from inhibition or displacement. A low value points to higher affinity. The molecule `CCN1CCCC12c1ccccc1CCc1ccc(Cl)cc12` (stereo not drawn) [I a-14] registered a Ki of 0.54 µM.
The result for `c1ccc2c(c1)CCc1ccccc1C21CCCN1` [I a-1, Spiro(dibenzosuberane-5,2'-pyrrolidine)] reads 0.047 µM; that for `CCCN1CCCC12c1ccccc1CCc1ccc(C)cc12` (stereo not drawn) [I a-9, Spiro[3-methyldibenzosuberane-5,2'-(1-n-propylpyrrolidine)]], 0.77 µM; that for `Clc1ccc2c(c1)C1(CCCN1)c1ccccc1CC2` (stereo not drawn) [I a-13, Spiro(3-chlorodibenzosuberane-5,2'-pyrrolidine)], 0.023 µM.
The result for `CCN1CCCC12c1ccccc1CCc1ccccc12` [I a-3, Spiro[dibenzosuberane-5,2'-(1-ethylpyrrolidine)]] reads 0.62 µM; that for `CCN1CCCC12c1ccccc1CCc1ccc(C)cc12` (stereo not drawn) [I a-10], 0.25 µM; that for `Cc1ccc2c(c1)C1(CCCN1C)c1ccccc1CC2` (stereo not drawn) [I a-8], 0.51 µM.
The molecule `Cc1ccc2c(c1)C1(CCCN1)c1ccccc1CC2` (stereo not drawn) [I a-7] showed a Ki of 0.031 µM.
`Cc1ccc2c(c1)C1(CCCN1Cc1ccccc1)c1ccccc1CC2` (stereo not drawn) [I a-11]: the Ki is more than 0.71 µM.
